In patent EP0375557A1, “Glycine derivative process for preparation thereof, and pharmaceutical composition containing it” (TANABE SEIYAKU CO., LTD., priority 1988, dated 1990) one finds minimal effective dose data, which are given here for four compounds.

SMILES strings stand for the structures.

This experiment has as its system arachidonic acid-induced pulmonary embolism. Nature of the experiment: Inhibiting effect on arachidonic acid-induced pulmonary embolism (in vivo). The conditions noted are these: Mus musculus, 3 h; oral administration in aqueous CMC to fasted ddY-male mice; arachidonic acid (125 mg/10ml/kg) into tail vein three hours later; dose required to induce at least 15 % decrease in recovery time of locomotive activity vs control; read-out: Minimum effective dose. On the procedure:
[Inhibiting effect on arachidonic acid-induced pulmonary embolism (in vivo)]
An aqueous carboxymethylcellulose (hereinafter referred to as "CMC") solution containing a test compound (20 ml/kg) was orally administered to ddY-male mice (8 mice per group) fasted overnight.
Turning to `CC(Cc1ccc(NCC(=O)O)cc1)NS(=O)(=O)c1ccc(Cl)cc1` (stereo not shown) [Example 2], the minimal effective dose is 1 mg/kg. To `CC(CNS(=O)(=O)c1ccc(Cl)cc1)c1ccc(NCC(=O)NCCC(=O)O)cc1` (stereo not shown) [Example 3] belongs 1 mg/kg.

Take `CC(CNS(=O)(=O)c1ccc(Cl)cc1)c1ccc(NCC(=O)NCCCC(=O)O)cc1` (stereo not shown) [Example 4]: the minimal effective dose was 3 mg/kg. To `O=C([O-])CNc1ccc(CCNS(=O)(=O)c2ccccc2)cc1.[Na+]` [Known compound, Sodium N-[4-(2-benzenesulfonylaminoethyl)phenyl]glycinate, reference compound] belongs 10 mg/kg.
